Experimental findings from PubChem BioAssay AID210 (DTP/NCI, 2004) are described below.

In this test the test system is CD2F1 mice, ip Colon 26 adenocarcinoma, median survival T/C. The test is described as follows: NCI In Vivo Anticancer Drug Screen. Data for tumor model Colon 26 Adenocarcinoma (intraperitoneal) in CD2F1 (CDF1) mice. To be noted: endpoint: median survival time, higher = longer survival. On the procedure:
The antitumor activity of compounds was measured in mice bearing transplantable tumors. Survival or tumor size were measured and the results are expressed as the measurement made in the treated group (T) divided by the measurement made in the vehicle treated control group (C). The tumor model used in this assay is Colon 26 Adenocarcinoma (intraperitoneal) in CD2F1 (CDF1) mice

Where [1] appears, read: dose: 0.5 mg/kg/injection, schedule: Q04DX003 (ip), vehicle: saline.
Setting [2] is: dose: 1.0 mg/kg/injection, schedule: Q04DX003 (ip), vehicle: saline.
The mark [3] stands for this setting: dose: 2.0 mg/kg/injection, schedule: Q04DX003 (ip), vehicle: saline.
The mark [4] stands for this setting: dose: 50.0 mg/kg/injection, schedule: Q04DX003 (ip), vehicle: saline.

Inconclusive results and toxic doses are left out.

Consider `COc1ccc(CC2C(=O)NC(C)C(=O)N(C)C3C(=O)N(C)C(Cc4ccc(O)c(c4)Oc4ccc(cc4)C3O)C(=O)NC(C)C(=O)NC(C)C(=O)N2C)cc1` (configuration not stated), for which the T/C reads like this: under setting [1], 98 % of control; under setting [2], 101 % of control; (dose: 1.08 mg/kg/injection, schedule: Q04DX003 (ip), vehicle: other) 91 % of control; (dose: 1.8 mg/kg/injection, schedule: Q04DX003 (ip), vehicle: other) 113 % of control; under setting [3], 92 % of control; (dose: 3.0 mg/kg/injection, schedule: Q04DX003 (ip), vehicle: other) 120 % of control. Further, where the note is “dose: 5.0 mg/kg/injection, schedule: Q04DX003 (ip), vehicle: other”, the T/C was 114 % of control.
In the case of `CCC1(O)CC2CN(CCc3c([nH]c4ccccc34)C(C(=O)OC)(c3cc4c(cc3OC)N(C)C3C(O)(C(N)=O)C(O)C5(CC)C=CCN6CCC43C65)C2)C1` (configuration not stated) (tested in a mixture with another compound), the T/C was 101 % of control (dose: 0.13 mg/kg/injection, schedule: Q04DX002 (ip), vehicle: water); 103 % of control (dose: 0.25 mg/kg/injection, schedule: Q04DX002 (ip), vehicle: water); 104 % of control (dose: 0.5 mg/kg/injection, schedule: Q04DX002 (ip), vehicle: water); 113 % of control (dose: 1.0 mg/kg/injection, schedule: Q04DX002 (ip), vehicle: water); 118 % of control (dose: 2.0 mg/kg/injection, schedule: Q04DX002 (ip), vehicle: water).
In the case of `CC(C)CCC[C@@H](C)[C@H]1CC[C@H]2[C@@H]3CC=C4C[C@@H](OC(=O)Cc5ccc(N(CCCl)CCCl)cc5)CC[C@]4(C)[C@H]3CC[C@]12C`, the T/C was 91 % of control (dose: 50.0 mg/kg/injection, schedule: Q04DX002 (ip), vehicle: Klucel (hydroxypropylcellulose) (HPC)); 101 % of control (dose: 100.0 mg/kg/injection, schedule: Q04DX002 (ip), vehicle: Klucel (hydroxypropylcellulose) (HPC)); 101 % of control (dose: 200.0 mg/kg/injection, schedule: Q04DX002 (ip), vehicle: Klucel (hydroxypropylcellulose) (HPC)); 101 % of control (dose: 400.0 mg/kg/injection, schedule: Q04DX002 (ip), vehicle: Klucel (hydroxypropylcellulose) (HPC)).
Consider `CCCCCCCC(=O)OCC(=O)[C@]1(O)Cc2c(O)c3c(c(O)c2[C@@H](OC2CC(N)C(O)C(C)O2)C1)C(=O)c1c(OC)cccc1C3=O` (some centres not stated), for which the T/C by setting is: (dose: 4.5 mg/kg/injection, schedule: Q07DX003 (iv), vehicle: saline) 112 % of control; (dose: 7.0 mg/kg/injection, schedule: Q07DX003 (iv), vehicle: saline) 112 % of control.
In the case of `O=C([O][Hg][CH2]C1COC([CH2][Hg][O]C(=O)c2ccccc2)CO1)c1ccccc1` (configuration not stated), the T/C (dose: 37.5 mg/kg/injection, schedule: Q04DX003 (ip), vehicle: saline with Tween-80) was 89 % of control and the T/C (dose: 75.0 mg/kg/injection, schedule: Q04DX003 (ip), vehicle: saline with Tween-80) was 94 % of control.
Turning to `CC(=O)O[C@@H]1[C@@H](O)C2=C3[C@]4(C)[C@@H]1C(C)(C)C(=O)C[C@@H]4[C@]3(O)[C@H](OC(C)=O)[C@@]1(C[C@@H]1C)C2=O`, the T/C runs as follows: (dose: 6.25 mg/kg/injection, schedule: Q04DX003 (ip), vehicle: distilled water + Tween-80) 94 % of control; (dose: 6.25 mg/kg/injection, schedule: Q04DX003 (ip), vehicle: saline with Tween-80) 106 % of control; (dose: 12.5 mg/kg/injection, schedule: Q04DX003 (ip), vehicle: distilled water + Tween-80) 106 % of control; (dose: 25.0 mg/kg/injection, schedule: Q04DX003 (ip), vehicle: distilled water + Tween-80) 106 % of control; (dose: 25.0 mg/kg/injection, schedule: Q04DX003 (ip), vehicle: saline with Tween-80) 99 % of control; (dose: 50.0 mg/kg/injection, schedule: Q04DX003 (ip), vehicle: distilled water + Tween-80) 100 % of control. In addition, the T/C (dose: 50.0 mg/kg/injection, schedule: Q04DX003 (ip), vehicle: saline with Tween-80) is 106 % of control and the T/C (dose: 100.0 mg/kg/injection, schedule: Q04DX003 (ip), vehicle: saline with Tween-80) was 106 % of control.
As for `COc1cc(C[C@H]2c3cc(OC)c(OC)cc3CCN2C)c(Oc2cc3c(cc2OC)-c2c(OC)c(OC)cc4c2[C@H](C3)N(C)CC4)cc1OC`, the T/C by setting is: (dose: 25.0 mg/kg/injection, schedule: Q04DX003 (ip), vehicle: saline) 89 % of control; under setting [4], 95 % of control; (dose: 100.0 mg/kg/injection, schedule: Q04DX003 (ip), vehicle: saline) 90 % of control; (dose: 200.0 mg/kg/injection, schedule: Q04DX003 (ip), vehicle: saline) 93 % of control; (dose: 400.0 mg/kg/injection, schedule: Q04DX003 (ip), vehicle: saline) 95 % of control.
Regarding `C1CN(P2(N3CC3)=NP(N3CC3)(N3CC3)=NP(N3CC3)(N3CC3)=N2)CCO1` (configuration not stated), the T/C is, setting by setting: (dose: 6.25 mg/kg/injection, schedule: Q04DX003 (ip), vehicle: saline) 92 % of control; (dose: 12.5 mg/kg/injection, schedule: Q04DX003 (ip), vehicle: saline) 121 % of control; under setting [4], 163 % of control.
Regarding `CCOC(=O)CNC(=O)CCCCSc1ncnc2nc[nH]c12`, the T/C reads like this: (dose: 400.0 mg/kg/injection, schedule: Q04DX003 (ip), vehicle: saline with Tween-80) 104 % of control; (dose: 800.0 mg/kg/injection, schedule: Q04DX003 (ip), vehicle: saline with Tween-80) 97 % of control; (dose: 1600.0 mg/kg/injection, schedule: Q04DX003 (ip), vehicle: saline with Tween-80) 88 % of control.
`CC(=O)OCc1cc(=O)n(C)c2c3c4c(cc12)c(C)cc(=O)n4CO3`: the T/C is, setting by setting: (dose: 12.5 mg/kg/injection, schedule: Q04DX003 (ip), vehicle: Klucel (hydroxypropylcellulose) (HPC)) 106 % of control; (dose: 25.0 mg/kg/injection, schedule: Q04DX003 (ip), vehicle: Klucel (hydroxypropylcellulose) (HPC)) 106 % of control; (dose: 50.0 mg/kg/injection, schedule: Q04DX003 (ip), vehicle: Klucel (hydroxypropylcellulose) (HPC)) 115 % of control; (dose: 200.0 mg/kg/injection, schedule: Q04DX003 (ip), vehicle: Klucel (hydroxypropylcellulose) (HPC)) 115 % of control.
Consider `CSC1SCC2C(=O)N(C)C(C(C)C)C(=O)OCC(NC(=O)c3cnc4ccccc4n3)C(=O)NC(C)C(=O)N(C)C1C(=O)N(C)C(C(C)C)C(=O)OCC(NC(=O)c1cnc3ccccc3n1)C(=O)NC(C)C(=O)N2C` (configuration not stated), for which the T/C is 87 % of control (dose: 25.0 micrograms/kg/injection, schedule: Q01DX004 (ip), vehicle: saline sonified); 86 % of control (dose: 100.0 micrograms/kg/injection, schedule: Q01DX004 (ip), vehicle: saline sonified); 94 % of control (dose: 100.0 micrograms/kg/injection, schedule: Q03DX002 (ip), vehicle: saline sonified); 90 % of control (dose: 150.0 micrograms/kg/injection, schedule: Q03DX002 (ip), vehicle: saline sonified).
With `Nc1nc2c(ncn2C2OC(CO)C(O)C2N)c(=O)[nH]1` (configuration not stated), the T/C was 95 % of control (dose: 3.0 mg/kg/injection, schedule: Q04DX002 (ip), vehicle: saline with Tween-80); 105 % of control (dose: 6.0 mg/kg/injection, schedule: Q04DX002 (ip), vehicle: saline with Tween-80); 88 % of control (dose: 12.0 mg/kg/injection, schedule: Q04DX002 (ip), vehicle: saline with Tween-80); 88 % of control (dose: 24.0 mg/kg/injection, schedule: Q04DX002 (ip), vehicle: saline with Tween-80); 96 % of control (dose: 48.0 mg/kg/injection, schedule: Q04DX002 (ip), vehicle: saline with Tween-80); 93 % of control (dose: 96.0 mg/kg/injection, schedule: Q04DX002 (ip), vehicle: saline with Tween-80).
Take `CO[C@H](C(=O)[C@@H](O)[C@@H](C)O)[C@@H]1Cc2cc3cc(OC4CC(OC5CC(O)C(O)C(C)O5)C(O)C(C)O4)c(C)c(O)c3c(O)c2C(=O)[C@H]1OC1CC(OC2CC(OC3CC(C)(O)C(O)C(C)O3)C(O)C(C)O2)C(O)C(C)O1` (some centres not stated): the T/C (dose: 0.25 mg/kg/injection, schedule: Q04DX003 (ip), vehicle: saline) was 96 % of control; the T/C under setting [1] was 98 % of control; the T/C under setting [2] is 98 % of control; the T/C under setting [3] is 100 % of control.
